Laboratory results from patent US5063222A, “Antiinflammatory dexamethasone 17α-cyclopropanecarboxylates with reduced systemic activity” (SS Pharmaceutical Co., Ltd., priority 1989, dated 1991).

Experiments:
[1] = test system: carrageenin edema of the right hind paw of rats; assay: Carrageenin paw edema, systemic (subcutaneous, back) administration, edema inhibition ED40; assay type: in vivo, Wister male rats; conditions: Rattus norvegicus, sc; s.c. into back, 60 min before 1% carrageenin; edema 3 hours after carrageenin
Method: (§1) Using Wister male rats weighting 130-150 g, each group consisting of 6 rats, the local selectivity of the anti-inflammatory action was investigated by the systemic and local administration of the compounds of the present invention and comparative compounds.
In the evaluation of systemic administration, a test compound suspended into 1% gum arabic was subcutaneously injected into back of rats at doses of 0.01, 0.03, 0.1, and 0.3 mg/kg (5 ml/kg). After 60 minutes following the administration, 1% carrageenin (0.1 ml) was injecte into the plantar surface of the right hind paw. The paw volume was measured with a plethysmometer before and 3 hours after the carrageenin injection. The value was compared with the corresponding value of the control group, thus obtaining the edema inhibition rate, from which ED40 was determined.

human skin = assay: Skin vessel constriction activity (local anti-inflammatory effect on human skin); assay type: in vivo, human (healthy male subjects); conditions: probit method
Method: Skin vessel constriction effects on human skin of the present invention were investigated according to the following method. Dexamethasone 17,21-dipropionate which is known as a very strong anti-inflammatory agent for external application was used as a comparative compound.
Fifteen (15) healthy male subjects who were free from any skin disease anamnesis, such as eczema, dermatosis, or the like, received the test. Test compounds were diluted with 95% ethanol to make 6 sample solutions with different concentrations; highest concentration: 1×10^-2, lowest concentration: 1×10^-7. A strap to which acryl cells (diameter: 12 mm, thickness: 2 mm, height, 3 mm) were fixed was applied to the back of each subject. The test compound solution was then dropped with a pippet, 0.02 ml per drop, according to a key-code allocated at random. After drying by air, the strap was peeled off. The coated area was covered with a polyvinylidene chloride film, of which the periphery was fixed with a strap for the patch test. The period of time during which the covering was applied was 16 hours. The judgment was made according to the following standard four times at 1, 2, 5, and 8 hours after the removal of the film.
++: The coated skin was strongly pale.
+: The coated skin was distinctly pale.
±: The coated skin was slightly pale.
The results were analyzed by the probit method to obtain the ED50 value (≥+) at which the coated area was clearly pale. The results are shown in Table 2, in which the relative value for the compounds of the present invention determined by taking the ED50 value for dexamethasone 17,21-dipropionate as 100 are given in parentheses.

[2] = test system: carrageenin edema of the paw of rats; assay: Carrageenin paw edema, local (into paw) administration, edema inhibition ED40; local selectivity (A)/(B); assay type: in vivo, Wister male rats; conditions: ratio of ED40 systemic to ED40 local
Method: as §1
For the local administration test, the test compound suspended in 1% carrageenin was subcutaneously injected into a paw in the rats at doses of 0.01, 0.03, and 1.0 μg/paw (0.1 ml/paw). Three hours after the carrageenin injection, the volume of the edema was compared with the corresponding value of the control group, thus obtaining the edema inhibition rate, from which ED40 was determined.
The ratio of the ED40 values thus obtained was taken for the evaluation of the local selectivity. [formula]
The higher the value, the greater is the selectivity.

[3] = 1 hour after removal of film (16 hours covering)
[4] = 2 hours after removal of film (16 hours covering)
[5] = 5 hours after removal of film (16 hours covering)
[6] = 8 hours after removal of film (16 hours covering)

## C[C@@H]1C[C@H]2[C@@H]3CCC4=CC(=O)C=C[C@]4(C)[C@@]3(F)[C@@H](O)C[C@]2(C)[C@@]1(OC(=O)C1CC1)C(=O)CO [Compound No. 1, 9α-fluoro-11β,17,21-trihydroxy-16α-methylpregna-1,4-diene-3,20-dione 17-cyclopropanecarboxylate]
[1]
  ED40: 0.28 mg/kg
Human skin; [3]
  ED50 value (≥ +) concentration: 1.45 × 10^-4%
Human skin; [4]
  ED50 value (≥ +) concentration: 1.19 × 10^-4%
Human skin; [5]
  ED50 value (≥ +) concentration: 7.29 × 10^-4%
Human skin; [6]
  ED50 value (≥ +) concentration: 1.24 × 10^-2%
[2]
  Local Selectivity (A)/(B): 3.50

## C[C@@H]1C[C@H]2[C@@H]3CCC4=CC(=O)C=C[C@]4(C)[C@@]3(F)[C@@H](O)C[C@]2(C)[C@@]1(OC(=O)C1CC1)C(=O)COC(=O)C1CC1 [Compound No. 4, 9α-fluoro-11β,17,21-trihydroxy-16α-methylpregna-1,4-diene-3,20-dione 17,21-dicyclopropanecarboxylate]
[1]
  ED40: 0.83 mg/kg
Human skin; [3]
  ED50 value (≥ +) concentration: 5.10 × 10^-4%
Human skin; [4]
  ED50 value (≥ +) concentration: 3.17 × 10^-4%
Human skin; [5]
  ED50 value (≥ +) concentration: 2.00 × 10^-3%
Human skin; [6]
  ED50 value (≥ +) concentration: 1.36 × 10^-2%
[2]
  Local Selectivity (A)/(B): 3.95

## CCCC(=O)OCC(=O)[C@@]1(OC(=O)CCC)[C@H](C)C[C@H]2[C@@H]3CCC4=CC(=O)C=C[C@]4(C)[C@@]3(F)[C@@H](O)C[C@@]21C [dexamethasone-17,21-dibutylate, reference compound]
[1]
  ED40: 0.34 mg/kg
[2]
  Local Selectivity (A)/(B): 2.00

## CCC(=O)OCC(=O)[C@@]1(OC(=O)CC)[C@H](C)C[C@H]2[C@@H]3CCC4=CC(=O)C=C[C@]4(C)[C@@]3(F)[C@@H](O)C[C@@]21C [dexamethasone-17,21-dipropionate, Dexamethasone 17,21-dipropionate, reference compound]
Human skin; [3]
  ED50 value (≥ +) concentration: 5.48 × 10^-4%
Human skin; [4]
  ED50 value (≥ +) concentration: 4.11 × 10^-4%
Human skin; [5]
  ED50 value (≥ +) concentration: 8.62 × 10^-3%
Human skin; [6]
  ED50 value (≥ +) concentration: 3.19 × 10^-2%

## CCCC(=O)O[C@]1(C(=O)CO)[C@H](C)C[C@H]2[C@@H]3CCC4=CC(=O)C=C[C@]4(C)[C@@]3(F)[C@@H](O)C[C@@]21C [dexamethasone-17-butylate, reference compound]
[1]
  ED40: 0.18 mg/kg
[2]
  Local Selectivity (A)/(B): 0.62
